Test results from patent US20180051284A1, “INHIBITORS OF MIR-17-92 CLUSTER FOR ANTI-TUMOR ACTIVITY IN MULTIPLE MYELOMA AND OTHER MALIGNANCIES” (priority 2014, published 2018).
l = locked nucleic acid (LNA); d = 2'-deoxy (DNA)

Columns and labels:
panel of MM cell lines = assay: CCK-8 cell growth analysis of a panel of MM cell lines after transfection; assay type: cell-based, Human; details: transfection 50-25-12,5 nM; up to 96 hours
Protocol: (§1) 3×10^5 cells were transfected using Neon Transfection System (Invitrogen, Calif.,U.S.), (2 pulses at 1150, 30ms). The transfection efficiency evaluated by flow-cytometric analysis relative to a FAM dye—labeled anti-miR—negative control reached 85% to 90%.
(§2) Cells were seeded in 100 μL (suspension cell lines) or 50 μL (adherent cell lines) of culture medium at a density ranging from 0,5 to 2,5×10^3 cells per well. Survival was evaluated by both Cell Counting Kit-8 colorimetric assay (CCK-8, Dojindo Molecular Technologies, Japan) and CellTiter-Glo Luminescent Cell Viability Assay (Promega Madison, Wis., USA). Assays were performed according to the manufacturer's instructions. The optical density (OD) was evaluated at wave length of 450 nm. Both OD and luminescence were recorded with the GloMax-multi detection system (Promega, Madison, Wis., USA).

INA-6 cells = assay: INA-6 SCID-hu model, serum shuIL-6R; assay type: in vivo, mice; details: I.P. 2 mg/kg at day 1-4-8-15-22; compared to controls
Protocol: The SCID-hu model was performed implanting human fetal long bone grafts sc into SCID mice (SCID-hu). Four weeks following bone implantation, 2.5×10^6 INA-6 multiple myeloma cells were injected directly into the human bone implant. Because INA-6 cells release soluble human IL-6 receptor (shuIL-6R), we used this marker to monitor tumor growth in SCID-hu mice.
Mouse sera were serially monitored for shulL-6R levels by ELISA (Quantikine […]; R&D Systems). Mice developed detectable serum shuIL-6R ˜4 weeks following INA-6 cell injection and then were […]. Three days after the last injection, blood samples were collected and analyzed (R&D Systems).
The in vivo activity of gapmer_06 was also evaluate in a orthotopic model of human MM using U266 cells, to explore the efficacy in relation to the microenvironment. Orthotopic murine model was performed by the use of NOD/SCID mice intravenously injected with luciferase gene-marked U266 cells. Tumor growth was monitored using IVIS LUMINA II Imaging System. […] Engraftment was determined by sacrificing mice after 10 weeks and analyzing bone marrow for luciferase gene-marked U266 cells. […] Mice were treated I.P. with gapmer_06 at concentration of 2 mg/kg at day 1-4-8-15-22, and serum shulL-6R levels were serially determined as a marker of tumor growth.

AMO1 xenografts = assay: In vivo tumor growth of AMO1 xenografts (IVIS); design: species or system mice; details: I.P. 2 mg/kg at day 1-4-8-15-22
Text: Male CB-17 severe combined immunodeficient (SCID) mice (6- to 8-weeks old; Harlan Laboratories, Inc., Indianapolis) were housed and monitored in our Animal Research Facility. All experimental procedures and protocols had been approved by the Institutional Ethical Committee (Magna Graecia University) and conducted according to protocols approved by the National Directorate of Veterinary Services (Italy). In accordance with institutional guidelines, mice were sacrificed when tumors reached 2 cm in diameter or in the event of paralysis or major compromise, to prevent unnecessary suffering. Animal experimental procedures have been performed as in previous reports (Di Martino et al, CCR 2012; Di Martino el al. Oncotarget 2013, Di Martino et al PlosOne 2014). […] Mice were also inoculated with 5×10^6 luciferase gene-marked U266, AMO-1, AMO-1/abzb, treatments were performed intraperitoneally (i.p.), and tumor volume were measured by IVIS Lumina II.
In vivo anti-MM activity of LNA gapmer_06 was next evaluated in NOD/SCID mice bearing subcutaneous AMO1 xenografts. […] Tumors volume were measured using IVIS LUMINA II Imaging We next evaluate the in vivo activity in Bortezomib-refractory model of human MM. […] Tumors volume were measured using IVIS LUMINA II Imaging System.

[1] = test system: RPMI-8226, KMS-12-BM and NCI-H929 MM cells; assay: CCK-8 cell growth assay after transfection; assay type: cell-based, Human; details: transfection with 25 nM
Protocol: as §1, §2

[2] = test system: CD138+ plasma cells derived from MGUS patients; assay: Cell viability (7-AAD) of MGUS plasma cells after gymnotic exposure; assay type: cell-based, Human; details: 6 days gymnotic exposure, 5 μM
Protocol: (§3) Following informed consent approved by our University Hospital Ethical Commitee, CD138+cells were isolated from the BM aspirates of both Monoclonal gammopathy of undetermined significance (MGUS) and myeloma patients by Ficoll-Hypaque density gradient sedimentation followed by antibody-mediated positive selection using anti-CD138 magnetic activated cell separation microbeads (Miltenyi Biotech, Gladbach, Germany). Purity of immunoselected cells were assessed by flow-cytometric analysis using a phycoerythrin-conjugated CD138 monoclonal antibody by standard procedures.
(§4) 7-aminoactinomycin was used to evaluate cell viability. The staining was performed according to manufacturer's instructions.

MM cell lines = assay: CCK-8 cell growth analysis after gymnotic exposure; assay type: cell-based, Human; details: six days gymnotic exposure, 100 nM to 20 μM; ten MM cell lines; units printed inside the value (nM lower, μM upper); read-out: IC50 values by CCK-8 assay, range over MM cell lines
Protocol: Cells were seeded at low plating density in order to reach confluence on the final day of the experiments (day 6). Cell number at plating ranged from 0.5 to 2.5×10^3 in 96-well plates, from 2.5 to 10×10^3 in 12-well plates and from 1 to 3×10^4 in 6-well plates.
The LNA/DNA Gapmers were used at concentrations ranging from 0.1 to 20 μM.
as §2

[3] = test system: CD138+ primary MM cells from bone marrow aspirates of myeloma patients; assay: Cell viability (7-AAD) of primary myeloma cells after gymnotic exposure; assay type: cell-based, Human; details: 6 days gymnotic exposure, 2.5, 5 or 10 μM; cultured with HS-5 stromal cells
Protocol: as §3, §4
CD138+malignant plasma cells derived from bone marrow aspirates of 11 myeloma patients were cultured in presence of human stromal HS-5 cells.

For “gapmer_06: LNA/DNA gapmer, SEQ ID 4 (14 mer): +T*+A*+C*T*T*G*C*T*T*G*G*+C*+T*+T; + LNA, * phosphorothioate (antisense TACTTGCTTGGCTT; sugars from the 5' end l3 d8 l3, all phosphorothioate, methylation of C not given here)”, the “anti-proliferative activity (CCK-8 assay)” value (panel of MM cell lines) was “exerted anti-proliferative activity up to 96 hours after transfection in all myeloma cell lines tested”, the “tumor growth (serum shuIL-6R levels)” value (INA-6 cells) was “significant tumor-growth inhibition” and the “tumor-growth inhibition relative to Bortezomib 1 mg/kg” value (AMO1 xenografts) was “almost comparable to Bortezomib effect”. For the same substance, the “tumor growth (IVIS tumor volume)” value (AMO1 xenografts; vs NaCl control) was “significant tumor-growth inhibition”, the “biological effect on cell growth (CCK-8) compared with single miRNA inhibitors for miR-17/18a/19a/19b/20a/92a” value [1] was “strongest biological effects” and the “cell growth inhibition (CCK-8 assay)” value ([1]; up to 96 hours, compared among the eight gapmers) was “strongest cell growth inhibition”. The “cell viability (7-AAD)” value [2] was “unaffected”, the IC50 (MM cell lines) was 500 to 8000 nM and the “dead myeloma cells (7-AAD staining)” value [3] was “significant increase of dead myeloma cells”.
